# Test results published in paper PMC7933930, “Development of a small molecule that corrects misfolding and increases secretion of Z α1‐antitrypsin” (EMBO Molecular Medicine, 2021).
# How the values were obtained:
# Cell Health = assay: Off‐target panel: Cell Health; type: cell-based
# Description: GSK716 selectivity and PK properties were profiled in order to investigate the suitability of GSK716 for progression into in vivo studies and the potential for taking it forward as a clinical candidate for testing in humans. Since GSK716 results in loss of inhibitory activity of α1‐antitrypsin, the effect of the compound was assessed on other closely related serpins. […] Furthermore, there were no off‐target effects in a panel of assays considered predictive of known safety liabilities that precluded further development of GSK716 (Table EV1).
# mouse hepatocytes = assay: Hepatocyte clearance, mouse; type: in vitro ADME
# Description: Williams E media supplemented with 2 mM L‐glutamine and 25 mM HEPES and test compound (final compound concentration 0.5 µM; final DMSO concentration 0.25% v/v) were preincubated at 37°C prior to the addition of a suspension of cryopreserved pooled hepatocytes (final cell density 0.5 × 10^6 viable cells/ml) to initiate the reaction. The final incubation volume was 500 µl. The reactions were stopped by transferring 50 µl of incubate to 100 µl acetonitrile containing internal standard at the appropriate time points (0, 5, 10, 20, 40 and 60 min, 0, 10, 20, 40, 60 and 120 min or 0, 20, 40, 60, 120 and 240 min). The control (lysed cells or vehicle) was incubated for 60, 120 or 240 min only. The termination plates were centrifuged at 2,500 rpm at 4°C for 30 min to precipitate the protein. Following protein precipitation, the sample supernatants were analysed by LC‐MS/MS. From a plot of loge peak area ratio (compound peak area/internal standard peak area) against time, the gradient of the line was determined and half‐life (t½) and intrinsic clearance (CLint) were calculated.
# [1] = test system: Z α1‐antitrypsin polymers in CHO‐TET‐ON‐Z‐A1AT cells; assay: Intracellular Z α1‐antitrypsin polymer formation in CHO‐TET‐ON‐Z‐A1AT cells (2C1 staining); type: cell-based
# Description: The ability of GSK716 to block Z α1‐antitrypsin polymerisation in the ER during folding was assessed by adding GSK716 to CHO‐TET‐ON‐Z‐A1AT cells (Ordóñez et al, 2013) with simultaneous induction of Z α1‐antitrypsin expression using doxycycline. […] Similar potency between the effects on secretion and polymerisation was observed throughout members of the lead series supporting the hypothesis that these effects are caused by the same pharmacological mode of action.
# Figure 2 GSK716 inhibits polymerisation of Z α1‐antitrypsin in cell models of disease • A GSK716 was added to CHO‐TET‐ON‐Z‐A1AT cells (Ordóñez et al, 2013) with simultaneous induction of Z α1‐antitrypsin expression using doxycycline, and polymer load was quantified with the 2C1 monoclonal antibody that is specific to pathological polymers of α1‐antitrypsin (Miranda et al, 2010). […] For every time point, NP‐40‐soluble and NP‐40‐insoluble fractions were separated and immunoprecipitated with the 2C1 mAb and resolved by 4–12% w/v SDS–PAGE and α1‐antitrypsin detected by immunoblotting. […] Cell viability was measured by Cell Counting Kit‐8. […] Samples were resolved by 4–12% w/v acrylamide SDS–PAGE and detected by autoradiography. • H The graphs show the effect of GSK716 on intracellular and extracellular Z α1‐antitrypsin (mean ± SEM, n = 2). […]
smiles,measurement,setting,value
CCC[C@@H](NC(=O)c1cccc2c1CC(=O)N2)[C@@H](O)c1cccc(F)c1C [GSK716],Mean (PXC50),Cell Health; Membrane Permeability,<3.7
same,Mean (PXC50),Cell Health; Mitochondrial Potential,3.8
same,Mean (PXC50),Cell Health; Nucleus (size),<3.7
same,metabolic clearance in mouse hepatocytes,mouse hepatocytes,4.56 ml/min/g tissue
same,intracellular formation of Z α1‐antitrypsin polymers in comparison with controls,[1],completely blocked
same,IC50,"[1]; doxycycline induction, n = 71, read-out: mean pIC50, intracellular formation of Z α1‐antitrypsin polymers (converted)",501 nM
